# Laboratory results from patent publication US9956319B2, “Compositions useful as antibiofilm or antimicrobial agents and methods using same” (BAYLOR COLLEGE OF MEDICINE, priority 2012, dated 2018).
# Columns and labels:
# Type in all cases: cell-based
# [1] = test system: Pseudomonas aeruginosa; assay: Bacterial colony counts extracted from impregnated central venous catheters after exposure to bacteria; conditions: catheter impregnated with 100 mg/ml, 10^5 cfu/ml suspension in TSB, 37° C., 24 hours
# Method: (§1) To evaluate the anticolonization/antimicrobial activity of central venous catheters treated with lipoamide, segments of 7 French triple lumen polyurethane central venous catheters were impregnated with lipoamide using the same patented method described in Example 1 (U.S. Pat. No. 6,589,591) with 100 mg/ml (final solution volume) of the agent. After the impregnation process and drying, Catheter segments were then placed in the impregnating solution at 55° C. with agitation for 1 hour in the dark. Catheter segments were then removed from the solution and dried under a fume hood overnight in the dark. Catheter segments were rinsed with deionized water the next day and let dry for another 18 hours in the dark. After the impregnation process and drying, one-centimeter segments of impregnated catheters were individually placed in 1 ml of 10^5 cfu/ml suspensions of MRSE, MRSA, or P. aeruginosa in trypticase soy broth (TSB) at 37° C. for 24 hours. One-centimeter segments of non-impregnated catheters were also incubated individually in each bacterial suspension at 37° C. for 24 hours as controls. […]
# (§2) Aliquots of each suspension and subsequent dilutions were cultured quantitatively.
# [2] = test system: Klebsiella pneumoniae; assay: as above; conditions: catheter impregnated with 25 mg/ml, 10^5 cfu/ml suspension in TSB, 37° C., 24 hours
# Method: as §1, with “dihydrolipoic acid,” for “lipoamide,”, “dihydrolipoic acid” for “lipoamide”, “25” for “100”, “K. pneumoniae” for “P. aeruginosa”
# as §2
# [3] = test system: Klebsiella pneumoniae I; assay: Bacterial colony counts extracted from impregnated central venous catheters after incubation in bacterial suspension; conditions: catheter impregnated with 50 mg/ml, 10^5 cfu/ml suspension in TSB, 37° C., 24 hours
# Method: In this example, segments of 7 French triple lumen polyurethane central venous catheters were impregnated with α-lipoic acid using the method described elsewhere (U.S. Pat. No. 6,589,591) and were subjected to zones of inhibition. Briefly, α-lipoic acid was dissolved in 88% formic acid (at a final solution concentration of 50 mg/ml). 85% ortho-Phosphoric acid and glycerol were then added to the solution at 79:8:13 (v/v/v) (formic acid:ortho-phosphoric acid:glycerol). After mixing the solution, 300 mg/ml of potassium chloride was added to the final solution and mixed.
# Catheter segments were then placed in the impregnating solution at 55° C. with agitation for 1 hour in the dark. Catheter segments were then removed from the solution and dried under a fume hood overnight in the dark. Catheter segments were rinsed with deionized water the next day and let dry for another 18 hours in the dark. After the impregnation process and drying, one-centimeter segments of impregnated catheters were individually placed in 1 ml of 10^5 cfu/ml suspensions of methicillin-sensitive Staphylococcus epidermidis (MSSE), methicillin-resistant Staphylococcus epidermidis (MRSE), methicillin-resistant Staphylococcus aureus (MRSA), Klebsiella pneumoniae, Escherichia coli, or Proteus mirabilis in trypticase soy broth (TSB) at 37° C. for 24 hours. One-centimeter segments of non-impregnated catheters were also incubated individually in each bacterial suspension at 37° C. for 24 hours as controls. Catheter segments were removed from each bacterial suspension after this period, shaken to remove excess broth containing free-floating bacteria from their surfaces, placed in 1 ml of normal saline, sonicated for 5 minutes, and vortexed for 30 seconds.
# as §2
compound,measurement,setting,value
"NC(=O)CCCCC1CCSS1 (stereo not drawn) [Lipoamide, lipoamide]",Mean bacterial colony counts extracted from catheter,[1],210000
"O=C(O)CCCCC(S)CCS (stereo not drawn) [Dihydrolipoic acid, 6,8-dimercaptooctanoic acid]",Mean bacterial colony counts extracted from catheter,[2],280000
"O=C(O)CCCCC1CCSS1 (stereo not drawn) [Lipoic acid, 1,2-dithiolane-3-pentanoic acid]",Bacterial colony counts extracted from central venous catheters,[3],1.1 × 10^6
